According to patent US11065211B2, “Isoxylitones mediated neurogenesis” (priority 2018, dated 2021):

Experiments:
Assay type in all cases: cell-based, rat
cortical (CTX) cells = test: Growth supporting effect on neuronal cultures (phase contrast microscopy); details: cortical cells treated for 24 h, FIG. 1
Method: (§1) For isolation of hippocampal and cortical neurons, two days old rat pups were sacrificed under sterile conditions. Brain samples were carefully isolated and hippocampal and cortical regions were dissected out and placed in ice-cold PBS supplemented with 1% penicillin-streptomycin. Tissue was chopped in small pieces with a sterile scalpel and washed three times with PBS. Subsequently tissues were digested in typsin-EDTA solution (0.05% of trypsin) for 7 minutes at 37° C. and 5% CO2 in a humidified chamber. After typsinisation, cells were washed three times in Dulbecco's Modified Eagle's Medium (DMEM) media containing 5% FBS and finally triturated using flame-polished Pasteur pipette to prepare dissociated cell suspension. The cell suspensions were then centrifuged at 1200 rpm for 4 minutes, supernatants were discarded and cell pellets were re-suspended in 1 mL complete media to find out the cell count and viability. Cells were finally cultured in DMEM (high glucose), supplemented with 10% fetal bovine serum (FBS), 1% L-Glutamine, 1% penicillin/streptomycin (10,000 U/mL and 10 mg/mL, resp.), and 1% sodium pyruvate. The culture flasks (75 cm^2) were then incubated at 37° C. with 5% CO2. Cells were examined daily for any change in morphology or contamination. Media was changed twice or thrice weekly. All cell work was done in a tissue culture hood under sterile conditions.
(§2) To evaluate the growth supporting effect of isoxylitones the hippocampal, cortical and co-cultured cells were plated in 6-well plates and treated with 25 μg/mL, 50 μg/mL, 75 μg/mL and 150 μg/mL doses of isoxylitones. Cells with no treatment were set as a control. The plates were incubated for 24 and 72 hrs in a humidified chamber at 37° C. in 5% CO2. To assess the morphology of the treated cells, images were captured and digitalized with Nikon TE-2000 inverted microscope equipped with phase-contrast optics to measure the difference of control group from treated group. The cells were observed carefully in order to check if they maintain their morphological characteristics after treatment with the compound. The doses which supported the maximum proliferation were used for proliferation assays i.e., AlamarBlue and BrdU assay.

hippocampal (HP) cells = test: as above; details: FIG. 1
Method: as §1, §2

Cocul-HP cells = test: AlamarBlue proliferation assay; details: 24 h, FIG. 4
Method: (§3) Wistar rats (150-200 gm) were used to isolate bone marrow (BM). Rats were sacrificed and their femurs were removed aseptically. The bone marrow (BM) was flushed from the shaft of the bone by clipping of the epiphysial ends and flushing using a 26-gauge needle with ˜2 ml of Dulbecco's Modified Eagle's medium (DMEM) supplemented with 5% FBS, 1% penicillin/streptomycin solution, 1% sodium pyruvate and L-glutamine. The BM was then centrifuged for 8 minutes at 1000 rpm. Following centrifugation, cell pellet was collected and 1 ml of fresh DMEM was added. The cell viability was checked using trypan blue exclusion method. The cells were then divided into three equal parts. One part was co-cultured with freshly isolated hippocampal cells in T75 cm^2 flask, 2nd with freshly isolated cortical cells and the third portion (BM cells only) was cultured as a control. The cell density for co-cultures was set at 140,000 cells/ml for each type of culture. The cultured flasks were then incubated at 37° C. and 5% CO2. After 4-5 days, floating hematopoietic cells and dead debris/tissues of hippocampus and cortex were removed and bone marrow stromal cells (BMSCs) were recovered due to their tendency to adhere. Medium was replaced after every 3 to 4 days till cells became 80-90% confluent.
(§4) AlamarBlue (AB), a water-soluble dye having resazurin salt was used to evaluate the effect of isoxylitones on the proliferation of the cultured cells. AB measures mitochondrial reductase activity of live cells. The resazurin has ability to enter the cytosol of viable cell and converted to the reduced fluorescent form resorufin by mitochondrial enzyme activity by accepting electrons from NADPH, FADH, FMNH, NADH as well as from the cytochromes. […] The amount of fluorescence produced is proportional to the number of living cells (Al-Nasiry, Geusens, Hanssens, Luyten, Pijnenborg, 2007). […] After incubation, the fluorescence intensity in each well was recorded at an excitation wavelength of 570 nm and an emission wavelength of 600 nm. The rate of cell proliferation was expressed as the relative fluorescence intensity. […] The blank media fluorescence measurement was subtracted from fluorescence measurements of cells from the same run.
(§5) Formula used to calculate the percentage reduction of AB using absorbance readings:
(§6) [formula] Where: O1=molar extinction coefficient (E) of oxidized alamarBlue® (Blue) at 570 nm O2=E of oxidized alamarBlue® at 600 nm A1=absorbance of test wells at 570 nm A2=absorbance of test wells at 600 nm P1=absorbance of positive growth control well (cells plus alamarBlue® but no test agent) at 570 nm P2=absorbance of positive growth control well (cells plus alamarBlue® but no test agent at 600 nm

Cocul-CTX cells = test: AlamarBlue proliferation assay; details: 24 h, FIG. 4
Method: as §3, §4, §5, §6

[1] = test system: co-cultured cortical (CTX-CoCul) cells; test: Growth supporting effect on co-cultures with BMSCs (phase contrast microscopy); details: 24 h, FIG. 2
Method: as §3, §2

[2] = test system: co-cultured hippocampal (HP-CoCul) cells; test: as above; details: 24 h, FIG. 2
Method: as §3, §2

[3] = hippocampal cells treated for 24 h

CC(=O)C=C1C=C(C)CC(C)(C)C1 (mixture of isomers) [isoxylitones]
effect on morphology (cortical (CTX) cells): without any significant change in morphology | proliferation (phase contrast photomicrographs) (cortical (CTX) cells): increased proliferation | effect on morphology (hippocampal (HP) cells; [3]): without any significant change in morphology | proliferation (phase contrast photomicrographs) (hippocampal (HP) cells; [3]): increased proliferation | proliferation of treated hippocampal cells compared to cortical cells (hippocampal (HP) cells; treated for 24 h): higher proliferation as compared to cortical cells | highest proliferative dose (Cocul-HP cells): 150 µg/mL | growth proliferation (Alamar blue) (Cocul-HP cells; various doses): dose dependent growth proliferative effect | highest proliferative dose (Cocul-CTX cells): 150 µg/mL | growth proliferation (Alamar blue) (Cocul-CTX cells; various doses): dose dependent growth proliferative effect | number of proliferating cells [1]: Marked increase | variation in morphology [1]: no significant variation in the morphology | number of proliferating cells ([2]; HP-CoCul cells): Marked increase | variation in morphology ([2]; HP-CoCul cells): no significant variation in the morphology | rate of proliferation in hippocampus cells as compared to cortical cells ([2]; co-cultured cells): almost double
